The text below walks through data of patent US20200216416A1, “QUINOLINE COMPOUNDS AS INHIBITORS OF TAM AND MET KINASES” (Array BioPharma Inc., priority 2019, published 2020).

One data set addresses T1, MDR1 (P-gp) (Homo sapiens, UniProt P08183).
T1 construct: expressed in transfected cells; host or cells: LLC-PK1
Description: MDR1 LLC-PK1 permeability assay. It counts as in vitro ADME. The conditions noted are these: pig, MDR1 transfected LLC-PK1 cells; for Papp at 2 h, 1 μM: permeability coefficient (Papp). The method in brief:
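MDR1-transfected LLC-PK1 monolayers dosed at 1 μM test article (1% organic) in A→B and B→A directions, in triplicate, for 2 h at 37 °C; lucifer yellow monitored monolayer integrity. Compound measured by LC-MS/MS against labetalol internal standard; Papp averaged per replicate, efflux ratio = Papp(B−A)/Papp(A−B).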

For data set [1], the target named is T2, His-tagged recombinant human AXL cytoplasmic domain (Homo sapiens, UniProt P30530).
T2 construct: His-tagged recombinant human AXL cytoplasmic domain
T2 sequence (P30530 473-894 limits assumed): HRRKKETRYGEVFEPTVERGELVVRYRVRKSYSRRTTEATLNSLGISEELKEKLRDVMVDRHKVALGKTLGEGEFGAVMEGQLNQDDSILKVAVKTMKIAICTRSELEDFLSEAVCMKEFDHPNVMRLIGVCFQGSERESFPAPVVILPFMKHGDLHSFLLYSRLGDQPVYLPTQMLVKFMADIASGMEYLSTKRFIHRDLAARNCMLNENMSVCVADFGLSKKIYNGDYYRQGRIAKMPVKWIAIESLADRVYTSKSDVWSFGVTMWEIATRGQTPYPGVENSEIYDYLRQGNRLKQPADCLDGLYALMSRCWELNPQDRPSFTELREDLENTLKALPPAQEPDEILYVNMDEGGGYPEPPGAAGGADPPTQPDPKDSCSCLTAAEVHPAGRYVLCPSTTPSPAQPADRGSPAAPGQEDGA
Description: AXL Enzyme Assay (LanthaScreen Eu Kinase Binding). The conditions noted are these: averaged IC50; 60-minute incubation at 22° C.; TR-FRET. Summed up: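 TR-FRET binding-displacement format: 20 nM Alexa Fluor Tracer 236, 2 nM biotin-anti-His and 2 nM Eu-streptavidin in 25 mM HEPES pH 7.4, 10 mM MgCl2, 0.01% Triton X-100, 2% DMSO. After 60 min at 22 °C, ratiometric percent of control was fitted to a 4-parameter logistic curve, IC50 taken at 50 POC.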

The target of data set [2] is T3, MET (wt) GST-tagged recombinant human MET kinase domain (Homo sapiens, UniProt P08581).
T3 construct: GST-tagged recombinant human MET kinase domain; purchased Signal Chem
T3 sequence (P08581 1078-1345 limits assumed): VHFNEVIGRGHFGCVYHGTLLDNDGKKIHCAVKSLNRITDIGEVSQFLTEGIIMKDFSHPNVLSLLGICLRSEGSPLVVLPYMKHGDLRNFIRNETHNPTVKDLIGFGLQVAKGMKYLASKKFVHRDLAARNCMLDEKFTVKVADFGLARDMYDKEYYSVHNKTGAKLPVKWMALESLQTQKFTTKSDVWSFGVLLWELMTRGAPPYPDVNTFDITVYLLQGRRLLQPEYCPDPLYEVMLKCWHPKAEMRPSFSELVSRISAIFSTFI
Briefly: c-Met Enzyme Assay, wild type (LanthaScreen Eu Kinase Binding). The conditions noted are these: averaged IC50; MET (wt) 10 nM; 60-minute incubation at 22° C.; read-out: SigChem WT IC50. The method in brief:
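LanthaScreen Eu TR-FRET binding: GST-tagged recombinant MET kinase domain incubated with compound, 50 nM Alexa-Fluor Tracer 236 and 2 nM Eu-anti-GST in 25 mM HEPES pH 7.4, 10 mM MgCl2, 1 mM DTT, 2% DMSO, 60 min at 22 °C. Ratiometric emission gave percent of control; IC50 from 4-parameter fit at 50 POC.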
On the technique in general: TR-FRET usually uses a lanthanide donor and a delayed reading to cut background.

Where [3] appears, read: LLC-PK1, efflux ratio = Papp(B-A)/Papp(A-B), read-out: MDR1 Pe Ratio.
Setting [4] is: LLC-PK1, Papp(B−A)/Papp(A−B), test article 1 μM, 2 hours, 37° C., read-out: Efflux ratio.

Like-named read-outs stand apart in the source and are kept apart here. Bounds are passed on as bounds.

T1 sequence (P08183 whole entry): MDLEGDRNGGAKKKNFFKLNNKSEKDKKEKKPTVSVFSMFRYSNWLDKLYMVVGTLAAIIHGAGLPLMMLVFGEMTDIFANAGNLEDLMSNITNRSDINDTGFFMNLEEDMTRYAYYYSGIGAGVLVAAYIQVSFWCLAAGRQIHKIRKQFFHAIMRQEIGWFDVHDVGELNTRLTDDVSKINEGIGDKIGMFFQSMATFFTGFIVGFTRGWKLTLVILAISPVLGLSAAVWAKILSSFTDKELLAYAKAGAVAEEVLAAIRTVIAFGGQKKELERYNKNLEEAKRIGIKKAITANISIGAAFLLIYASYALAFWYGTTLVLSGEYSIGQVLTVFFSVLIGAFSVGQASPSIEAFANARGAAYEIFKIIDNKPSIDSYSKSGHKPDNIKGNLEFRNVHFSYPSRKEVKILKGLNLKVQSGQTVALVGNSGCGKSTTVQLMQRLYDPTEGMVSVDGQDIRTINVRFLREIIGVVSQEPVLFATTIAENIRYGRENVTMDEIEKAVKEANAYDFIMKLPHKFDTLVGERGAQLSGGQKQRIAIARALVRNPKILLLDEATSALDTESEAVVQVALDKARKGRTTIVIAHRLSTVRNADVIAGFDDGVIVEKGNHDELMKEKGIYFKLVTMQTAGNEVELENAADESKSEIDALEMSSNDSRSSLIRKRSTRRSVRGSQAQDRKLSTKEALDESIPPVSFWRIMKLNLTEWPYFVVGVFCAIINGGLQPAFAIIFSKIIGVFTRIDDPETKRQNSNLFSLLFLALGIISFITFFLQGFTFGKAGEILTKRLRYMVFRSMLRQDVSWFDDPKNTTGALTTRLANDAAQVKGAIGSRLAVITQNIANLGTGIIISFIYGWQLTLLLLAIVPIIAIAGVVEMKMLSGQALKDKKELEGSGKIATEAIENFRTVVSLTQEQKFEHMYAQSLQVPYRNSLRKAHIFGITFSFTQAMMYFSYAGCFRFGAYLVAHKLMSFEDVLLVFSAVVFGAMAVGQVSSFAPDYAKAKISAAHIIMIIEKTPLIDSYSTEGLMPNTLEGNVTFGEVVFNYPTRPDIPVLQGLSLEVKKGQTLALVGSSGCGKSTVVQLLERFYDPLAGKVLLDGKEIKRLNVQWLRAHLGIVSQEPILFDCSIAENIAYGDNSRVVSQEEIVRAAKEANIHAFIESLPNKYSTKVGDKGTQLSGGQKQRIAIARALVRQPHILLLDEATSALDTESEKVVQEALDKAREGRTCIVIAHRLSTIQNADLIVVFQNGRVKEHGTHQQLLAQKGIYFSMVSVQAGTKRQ

As to `CC(C)n1cc(C(=O)Nc2ccc(Oc3ccnc4cc(OC(F)(F)F)ccc34)cn2)c(=O)c(-c2ccc(F)cc2)c1` [Example 50, 5-(4-fluorophenyl)-1-isopropyl-4-oxo-N-(5-((7-(trifluoromethoxy)quinolin-4-yl)oxy)pyridin-2-yl)-1,4-dihydropyridine-3-carboxamide], the efflux ratio at 2 h, 1 μM on MDR1 (P-gp) (setting [3]) stood at 4.7. The Papp at 2 h, 1 μM on MDR1 (P-gp) is less than 1 ×10⁻⁶ cm/s. The IC50 in data set [1] was found to be 16 nM; in data set [2], 59.2 nM.
With `CNC(=O)Cn1cc(C(=O)Nc2ccc(Oc3ccnc4cc(OC)c(OC)cc34)cn2)c(=O)c(-c2ccc(F)cc2)c1` [Example 22], the efflux ratio at 2 h, 1 μM at MDR1 (P-gp) (setting [3]) turned out to be 80. Further, at MDR1 (P-gp), the Papp at 2 h, 1 μM was 2 ×10⁻⁶ cm/s. The IC50 came to 2 nM in data set [1] and 1.8 nM in data set [2].
In the same order, the values of `COc1cc2nccc(Oc3ccc(NC(=O)c4cn(CC(C)(C)O)cc(-c5ccc(F)cc5)c4=O)nc3)c2cc1OC` [Example 9, N-(5-((6,7-dimethoxyquinolin-4-yl)oxy)pyridin-2-yl)-5-(4-fluorophenyl)-1-(2-hydroxy-2-methylpropyl)-4-oxo-1,4-dihydropyridine-3-carboxamide] are 26, 14 ×10⁻⁶ cm/s, 2 nM and 2.9 nM.
Take `COc1cc2nccc(Oc3ccc(NC(=O)c4cn(C(C)C)cc(-c5ccc(F)cc5Cl)c4=O)nc3)c2cc1OC` [Example 18, 5-(2-chloro-4-fluorophenyl)-N-(5-((6,7-dimethoxyquinolin-4-yl)oxy)pyridin-2-yl)-1-isopropyl-4-oxo-1,4-dihydropyridine-3-carboxamide]: the efflux ratio at 2 h, 1 μM at MDR1 (P-gp) (setting [4]) stood at 3.5; on MDR1 (P-gp) (setting [3]), 2.1. Also, on MDR1 (P-gp), the Papp at 2 h, 1 μM is 11 ×10⁻⁶ cm/s. Further, the IC50 in data set [1] was 2 nM; in data set [2] it was 2.7 nM.
Turning to `COc1cc2c(Oc3ccc(NC(=O)c4cn(C(C)C)cc(-c5ccc(F)cc5)c4=O)nc3)ccnc2cc1F` [Example 49, N-(5-((7-fluoro-6-methoxyquinolin-4yl)oxy)pyridin-2-yl)-5-(4-fluorophenyl)-1-isopropyl-4-oxo-1,4-dihydropyridine-3-carboxamide], the values for the efflux ratio at 2 h, 1 μM on MDR1 (P-gp) (setting [4]) and at MDR1 (P-gp) (setting [3]) were 3.5 and 0.99, respectively. The molecule further showed a Papp at 2 h, 1 μM on MDR1 (P-gp) of 4 ×10⁻⁶ cm/s. The values for the IC50 in data set [1] and in data set [2] were 1 nM and 27 nM, respectively.
`COc1cc2nccc(Oc3ccc(NC(=O)c4cn(CC(=O)N5CCOCC5)cc(-c5ccc(F)cc5F)c4=O)nc3)c2cc1OC` [Example 15, 5-(2,4-difluorophenyl)-N-(5-((6,7-dimethoxyquinolin-4-yl)oxy)pyridin-2-yl)-1-(2-morpholino-2-oxoethyl)-4-oxo-1,4-dihydropyridine-3-carboxamide]: the efflux ratio at 2 h, 1 μM at MDR1 (P-gp) (setting [3]) amounted to 135. Moreover, the Papp at 2 h, 1 μM on MDR1 (P-gp) was 2 ×10⁻⁶ cm/s. Moreover, the values for the IC50 in data set [1] and in data set [2] were 2 nM and 33.8 nM, respectively.
As for `COc1cc2nccc(Oc3ccc(NC(=O)c4cn(C(C)C)cc(-c5ccc(Cl)cc5)c4=O)nc3)c2cc1OC` [Example 5, 5-(4-chlorophenyl)-N-(5-((6,7-dimethoxyquinolin-4-yl)oxy)pyridin-2-yl)-1-isopropyl-4-oxo-1,4-dihydropyridine-3-carboxamide], the efflux ratio at 2 h, 1 μM at MDR1 (P-gp) (setting [4]) stood at 3.5; on MDR1 (P-gp) (setting [3]), 2.6. For the same molecule, the Papp at 2 h, 1 μM at MDR1 (P-gp) was found to be 5 ×10⁻⁶ cm/s. In addition, the IC50 was determined as 2 nM in data set [1] and 6.4 nM in data set [2].
As for `COc1cc2nccc(Oc3ccc(NC(=O)c4cn(C(C)C)cc(-c5ccc(F)cc5OC)c4=O)nc3)c2cc1OC` [Example 32, N-(5-((6,7-dimethoxyquinolin-4yl)oxy)pyridin-2-yl)-5-(4-fluoro-2-methoxyphenyl)-1-isopropyl-4-oxo-1,4-dihydropyridine-3-carboxamide], the efflux ratio at 2 h, 1 μM on MDR1 (P-gp) (setting [3]) came to 7.1. Also, the Papp at 2 h, 1 μM on MDR1 (P-gp) came out at 14 ×10⁻⁶ cm/s. In addition, the results for the IC50 in data set [1] and in data set [2] were 2 nM and 3 nM, respectively.
As to `COc1cc2nccc(Oc3ccc(NC(=O)c4cn(CCN(C)C)cc(-c5ccc(Cl)cc5)c4=O)nc3)c2cc1OC` [Example 42], on MDR1 (P-gp) (setting [3]), the efflux ratio at 2 h, 1 μM was found to be 12. In addition, the IC50 in data set [1] was 2 nM; in data set [2], 3.2 nM.

What is called Papp is the rate of passage across a membrane or cell layer, normalised by area and donor concentration. Read a low Papp as poor permeation. As usually defined, the IC50 is the concentration that inhibits the measured activity by half.
